Measured values as given in PMC6950563, “Epinecidin-1 Protects against Methicillin Resistant Staphylococcus aureus Infection and Sepsis in Pyemia Pigs” (Marine Drugs, 2019).
Read-outs that look alike come from different tables or passages of the source. Residues, ends and D or L forms follow the SMILES beside them.

Legend:
[1] = test system: MRSA; type: cell-based, Staphylococcus aureus; conditions: for pathogens killed (time-kill): 4 h
Description: At 4, 8, 12, and 24 h post-treatment, the number of viable bacteria (CFU) was determined for the time-kill experiment.

[2] = pigs
Description: (§1) Approximately 3 mL of blood was taken from the carotid artery at 0, 10, 20, 30, and 60 minutes and at 60 minutes intervals thereafter until 600 minutes had passed.

[3] = Acute intravenous toxicity in pigs; type: in vivo, pig
Description: Acute intravenous (i.v.) toxicity was analyzed as described previously. Acute i.v. toxicity was assessed after administration of 25, 50, 100, and 200 mg/kg body weight of Epi-1 in pigs; 1 to 5 animals per group. After injection, the animals were kept under visual observation up to 1 h, and the rate of mortality and clinical symptoms were recorded every 2 h for a total of 24 h. For blood analysis, 5 mL of heparin-stabilized blood was taken and stored at 4 °C. Serum was separated from the blood sample using a serum separator gel tube (catalogue number 367955, Becton-Dickinson, Franklin Park, NJ, USA), according to the vendor’s instructions. Serum GOT, GPT, UA, BUN, and CRT activity levels were determined using an automated analyzer (FUJI DRI-CHEM 4000i, Fujifilm, Tokyo, Japan) according to the manufacturers’ instructions. Standard controls were analyzed before each determination.

[4] = 25% human serum in RPMI, 37 °C, LC-MS/MS
Description: Human serum (catalogue number BP2657100, Fisher Scientific, Millersburg, PA, USA) was suspended in RPMI medium up to 25%, and 0.990 mL was transferred to a 1.5 mL micro centrifuge tube. The serum-containing tube was incubated at 37 °C for 15 min, and 10 mg/mL Epi-1 was added to obtain a final peptide concentration of 100 μg/mL. At constant time intervals 100 μL of the experimental mix was taken out, and serum protein was precipitated in two volumes of 95% ethanol solution. The cloudy precipitate was cooled at 4 °C for 15 min, and then the serum was precipitated and pelleted by centrifugation at 18,000 × g for 2 min. The peptide stability in the supernatant was then analyzed by a liquid chromatography tandem mass spectrometer (LC-MS/MS) (Mission Biotech, Taipei, Taiwan).

[5] = in vivo; conditions: pig, iv
Description: as §1

[6] = test system: MRSA; assay: Survival of MRSA-infected pyemia pigs; type: in vivo, pig
Description: Administration of bacteria or mock treatment followed by flushing with 5 mL of sterile isotonic saline was performed by i.v. through a 22G catheter inserted in the right femoral vein. The catheter was removed after administration. Another 22G catheter was then inserted into the left femoral vein and secured with stitches. The catheter was flushed with 10 mL sterile isotonic saline solution, and then with 2 mL of 100 I.U./mL sterile heparin solution (catalogue number H3149, Sigma Chemical Co., St. Louis, MO, USA) for blood sampling. During blood sampling, the initial 5 mL of blood was discarded to avoid the heparin carryover. Five pigs were inoculated with the MRSA strain (1 × 10^9 CFU/kg) only. […] Samples were subsequently collected for histopathology, microbial studies, and bacterial count.

[7] = test system: MRSA; assay: Histopathology (H&E) of major organs of infected pigs; type: in vivo, pig; conditions: vancomycin 0.5 mg/kg, day 7
Description: Tissue samples from the heart valve, left diaphragmatic lobe of the lung, left lateral lobe of the liver, and left kidney were collected and fixed in PBS buffer containing 4% formaldehyde for 24 h. Fixed samples were immersed in different concentrations of xylene and ethanol before embedding in paraffin. The processed samples were sectioned at 8–10 µm using a microtome. The sections were stained for histological analysis with hematoxylin and eosin (H&E) after rehydration.

[8] = pig, Epi-1 200 mg/kg single i.v., n=1, died in one hour after injection

Compound: CC[C@H](C)[C@H](NC(=O)[C@H](CCSC)NC(=O)[C@H](CCCCN)NC(=O)CNC(=O)[C@H](C)NC(=O)[C@H](Cc1c[nH]cn1)NC(=O)[C@H](Cc1ccccc1)NC(=O)[C@H](CC(C)C)NC(=O)CNC(=O)[C@H](CCCCN)NC(=O)[C@@H](NC(=O)[C@@H](NC(=O)[C@H](Cc1c[nH]cn1)NC(=O)[C@H](Cc1ccccc1)NC(=O)[C@@H](NC(=O)[C@H](Cc1ccccc1)NC(=O)CN)[C@@H](C)CC)[C@@H](C)CC)[C@@H](C)CC)C(=O)N[C@@H](Cc1c[nH]cn1)C(=O)NCC(=O)N[C@@H](CC(C)C)C(=O)N[C@H](C(N)=O)C(C)C [Epi-1, epinecidin-1] (H-GFIFHIIKGLFHAGKMIHGLV-NH2)
- pathogens killed (time-kill) [1]; 1: 90%
- pathogens killed (time-kill) [1]; 2: 90%
- time post i.v. injection up to which Epi-1 is stable in serum ([2]; i.v.): up to 4 h
- time post-injection up to which Epi-1 was detected in serum ([2]; i.v.): up to 240 min
- BUN [3, 8]: Died
- CRE [3, 8]: Died
- GOT [3, 8]: Died
- GPT [3, 8]: Died
- Serum UA [3, 8]: Died
- doses that did not cause abnormal behavior, mortality, or activity ([3]; single i.v. injection, piglets starved 12 h, observed every 2 h up to 24 h): up to 100 mg/kg
- concentration of free Epi-1 in serum, initial ([4]; 15 min pre-incubation, nominal 100 µg/mL, ethanol precipitation, start, mean ± SEM, three independent experiments): 7360 ± 300 ng/mL
- time up to which the free Epi-1 concentration did not change (after the initial 30 min) [4]: up to 7 h
- time for which Epi-1 was stable in human serum in vitro ([4]; Figure 2C): up to 400 min
- concentration of free Epi-1 in serum after the initial 30 min ([4]; nominal 100 µg/mL, ethanol precipitation, 30 min, mean ± SEM, three independent experiments): 5940 ± 120 ng/mL
- half-life ([5]; plasma): ~4 h
- level at 5 h ([5]; serum, 0.5 mg/kg): 2920 ± 957 ng/mL
- level at 10 min ([5]; serum, 1.5 mg/kg): 9061 ± 60 ng/mL
- level at 5 h ([5]; serum, 1.5 mg/kg): 3780 ± 219 ng/mL
- level at 5 h ([5]; serum, 2.5 mg/kg): 8880 ± 205 ng/mL

Compound: CN[C@H](CC(C)C)C(=O)N[C@H]1C(=O)N[C@@H](CC(N)=O)C(=O)N[C@H]2C(=O)N[C@H]3C(=O)N[C@H](C(=O)N[C@H](C(=O)O)c4cc(O)cc(O)c4-c4cc3ccc4O)[C@H](O)c3ccc(c(Cl)c3)Oc3cc2cc(c3O[C@@H]2O[C@H](CO)[C@@H](O)[C@H](O)[C@H]2O[C@H]2C[C@](C)(N)[C@H](O)[C@H](C)O2)Oc2ccc(cc2Cl)[C@H]1O [vancomycin]
- killing of MRSA ([1]; at 24 h, about 1 × 10^6 cells, Figure 1B): 95%
- survival against MRSA infection ([6]; MRSA 1 × 10^9 CFU/kg i.v., vancomycin 0.5 mg/kg i.v. 30 min post-infection, 7 days): 80%
- Survival Rate (Day PI) ([6]; MRSA 10^9 CFU/kg i.v., vancomycin 0.5 mg/kg, n=5): 80
- course of the serum concentration of vancomycin ([2]; vancomycin 0.5 mg/kg i.v., up to 360 min, LC-MS-MS, Supplementary Figure S1): very stable
- Heart: infective endocarditis (animals with clinical signs/total examined) [7]: 0/5
- Kidney: cystic tubules, cortical (animals with clinical signs/total examined) [7]: 0/5
- Liver: liver abscess (animals with clinical signs/total examined) [7]: 1/5
- Lung: inflammation, pulmonary edema (animals with clinical signs/total examined) [7]: 2/5
